Test results from patent US9844546B2, “Antibody against human HIF hydroxylase” (OXFORD UNIVERSITY INNOVATION LIMITED, priority 2001, dated 2017).

Experiments:
[1] = target: T1, VHL E3 ubiquitin ligase (Homo sapiens, UniProt P40337); test: VHL E3 interaction assay with 35S-labelled tat-ODD IVTT products; assay type: binding; conditions: after modification by cell extracts
T1 construct: expressed in transfected cells; host or cells: 786-0 cells stably transfected with pcDNA3 VHL.HA (whole extract, anti-HA immunoprecipitation)
Description: Concordant with the ubiquitination assays discussed above NODD (HIF-1α 343-417) and CODD (HIF-1α 549-582) polypeptides, but not their corresponding proline mutants (HIF-1α 343-417/P402A and HIF-1α 549-582/P564G), bound to VHL E3 ubiquitin ligase after modification by cell extracts. The ^35S-methionine labelled recombinant polypeptides therefore interacted with VHL, supporting the results of the ubiquitination experiments discussed above. The interaction was enhanced by the presence of cell extracts which promote hydroxylation of the prolines at positions 402 and 564 ^19. In contrast, no binding occurred using peptides in which prolines were mutated.
For VHL E3 interaction assays ^35S-methionine labelled HIF-1a substrates were prepared by transcription/translation using TnT7 rabbit reticulocyte lysate (Promega). 100 μM DFO was added to the reaction to suppress prolyl hydroxylase activity of the reticulocyte lysate. Substrate modification was achieved by incubation of HIF-1α translate with RCC4 cell lysate in the presence of ferrous chloride (100 μM). Interaction with VHL E3 was analysed as described previously ^21.

[2] = system: U2OS and Hep3B cells; test: HRE-dependent luciferase reporter assay after transient transfection of NODD/CODD plasmids; assay type: cell-based, human; conditions: normoxic conditions, 24 hours
Description: Since normoxic HIFα degradation is saturable ^17 and depends on sub-regions within the ODD we tested whether peptides encoding the HIF-1α amino terminal ODD (NODD) and carboxy terminal ODD (CODD) ^21 could affect HIF activity as measured by hypoxia response element (HRE)-dependent reporter gene expression. Briefly, Degradation is prevented by the NODD and CODD polypeptides competing for prolyl hydroxylation and/or VHL binding, thereby blocking subsequent ubiquitination. We constructed plasmids encoding NODD (HIF-1-α aa 343-417) or CODD (HIF-1-α aa 549-582) linked to nuclear localisation sequences and a c-myc epitope tag. These plasmids were transiently co-transfected into U2OS and Hep3B cells with an HRE-dependent luciferase reporter plasmid. […]
For reporter gene assays DNA fragments encoding HIF-1α amino acids 343-417, 380-417, 390-417, 390-410, 343-400, 530-95, 530-82, 549-82, 556-74 and 530-62 were generated by PCR using oligonucleotides containing 5′ SacII or 3′ AscI sites and inserted into a pCMV/myc/nuc (Invitrogen) derivative bearing these sites in frame with the NLS and epitope tag. […] To generate tet-operator dependent plasmids the open reading frames from the aa343-417 and aa549-82 constructs were subcloned into pUHD 10 ^34. […]

[3] = system: U2OS cells; test: U2OS cells stably transfected with doxycycline-inducible NODD or CODD; assay type: cell-based, human
Protocol: To explore further the therapeutic potential of NODD and CODD polypeptides to activate endogenous HIF we stably transfected U2OS cells with doxycycline-inducible NODD (doxNODD) and CODD constructs (doxCODD) encoding identical sequences to those used for transient transfections.
Cells stably transfected with NODD or CODD controlled by the tetracycline-inducible system were exposed to doxycycline. Cell extracts were prepared 0, 16, 24 and 48 hours after exposure to doxycycline. The extracts of doxNODD (HIF-1α aa343-417), doxCODD (HIF-1α aa549-82) and control cells (empty vector) were then immunoblotted for HIF-1α protein. Increased HIF-1α signals were detected from 16-48 hours following doxycycline administration in doxNODD and doxCODD cells but not in empty vector cells. Levels of HIF-1α induced by hypoxia were also measured for comparison. The endogenous HIF-1α induction was doxycycline dose (0.2-3.2 μg/ml) and time dependent, peaking after 48 hours. Maximal levels were about 20% and about 70% of HIF-1α levels seen following hypoxic or DFO treatment of the doxNODD and doxCODD cells respectively. […]
Stably transfected cell lines were generated by transfecting U2OS cells bearing the reverse tetracycline responsive transactivator ^34 and the tetKRAB silencer construct ^36 with pUHD/HIF plasmids. Following selection in G418 (1 mg/ml) individual colonies were picked. DoxNODD (F21) and doxCODD (myc19) clones expressed pUHD/HIF-1aa343-417/3NLS/c-myc and pUHD/HIF-1α aa549-82/3NLS/c-myc respectively. […]
Cell extracts were prepared in buffer (8M urea, 10% glycerol, 1% SDS, 5 mM DTT, 10 mM Tris/pH 6.8), separated by SDS-PAGE and transferred to Immobilon-P membrane (Millipore). Primary antibodies against HIF-1α, c-myc tag and HA tag were from Transduction Laboratories, Innogenex and Roche Molecular respectively. […]

[4] = system: human microvascular endothelial cells (HMEC-1); test: Tubule formation assay, co-culture with HMEC-1; assay type: cell-based; conditions: intermittent doxycycline over 5 days
Description: Artificial activation of the HIF signalling pathway using the methods of the invention should induce angiogenesis and will therefore be of potential therapeutic use in ischaemic disease. We tested the effect of polypeptide induced HIF stabilisation in an in vitro angiogenesis assay, co-culturing human microvascular endothelial cells (HMEC-1) with empty vector transfected or doxCODD cells. In view of the possibility of sustained activation inducing a negative feedback loop we opted to test the effects of intermittent induction. […] As a positive control epidermal Growth Factor (EGF; 5 ng/ml), which is known to induce growth of HMEC-1, was used. To extend these observations into an in vivo model we assayed the effects of injecting tat-fusion proteins into polyurethane sponges implanted subcutaneously in mice. Intermittent injections on days 1, 2, 4 and 5 led to a markedly accelerated angiogenic response assayed on day 7 when compared with sponges injected with proline mutant fusion proteins, excluding a contribution from the tat component ^28. […]
doxCODD or empty vector cells were co-cultivated with human microvascular endothelial cells (HMEC-1) in a ratio of 2:1 in DMEM 10% doxycycline free FCS (Clontech), 2 mM Glutamine and 100 U/ml Penicillin/100 μg/ml Streptomycin. […] Endothelial cells were detected using antibodies to von Willebrand factor (vWF) (Dako).

T1 sequence (P40337 whole entry): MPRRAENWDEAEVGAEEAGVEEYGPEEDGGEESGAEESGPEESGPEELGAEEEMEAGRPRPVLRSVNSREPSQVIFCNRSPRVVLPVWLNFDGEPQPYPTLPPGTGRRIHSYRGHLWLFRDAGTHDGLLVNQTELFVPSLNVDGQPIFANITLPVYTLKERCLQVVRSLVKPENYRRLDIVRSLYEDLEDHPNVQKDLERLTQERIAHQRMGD
T1 sequence (Q15370 whole entry partner): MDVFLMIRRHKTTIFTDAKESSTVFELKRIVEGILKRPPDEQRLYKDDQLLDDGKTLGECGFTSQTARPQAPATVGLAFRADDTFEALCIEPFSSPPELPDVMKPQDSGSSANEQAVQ
T1 sequence (Q15369 whole entry partner): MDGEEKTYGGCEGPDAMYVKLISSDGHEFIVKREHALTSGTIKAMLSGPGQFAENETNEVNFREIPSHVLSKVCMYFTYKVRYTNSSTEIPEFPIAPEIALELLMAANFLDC
T1 sequence (Q13617 whole entry partner): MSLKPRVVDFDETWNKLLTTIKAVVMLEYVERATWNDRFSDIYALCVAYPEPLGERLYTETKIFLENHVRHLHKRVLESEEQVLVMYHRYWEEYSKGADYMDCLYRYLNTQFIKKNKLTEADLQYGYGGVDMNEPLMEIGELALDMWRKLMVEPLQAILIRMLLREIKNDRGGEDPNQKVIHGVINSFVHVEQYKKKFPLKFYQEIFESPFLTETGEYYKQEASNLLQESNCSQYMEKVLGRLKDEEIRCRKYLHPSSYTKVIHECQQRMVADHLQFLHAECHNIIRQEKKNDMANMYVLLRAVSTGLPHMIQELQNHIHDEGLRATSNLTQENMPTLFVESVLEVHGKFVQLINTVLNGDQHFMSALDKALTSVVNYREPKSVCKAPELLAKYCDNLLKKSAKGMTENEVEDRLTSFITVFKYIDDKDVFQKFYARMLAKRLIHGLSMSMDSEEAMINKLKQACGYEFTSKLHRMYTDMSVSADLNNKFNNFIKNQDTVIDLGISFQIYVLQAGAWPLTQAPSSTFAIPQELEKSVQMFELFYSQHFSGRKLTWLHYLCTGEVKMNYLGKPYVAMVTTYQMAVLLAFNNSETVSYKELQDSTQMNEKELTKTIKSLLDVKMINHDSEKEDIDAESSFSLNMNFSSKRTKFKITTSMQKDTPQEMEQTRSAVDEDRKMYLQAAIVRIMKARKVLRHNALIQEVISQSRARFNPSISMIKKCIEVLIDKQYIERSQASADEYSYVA
T1 sequence (P62877 whole entry partner): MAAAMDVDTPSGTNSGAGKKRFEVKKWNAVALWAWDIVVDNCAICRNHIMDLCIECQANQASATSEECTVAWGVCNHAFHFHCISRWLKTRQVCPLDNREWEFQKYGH

**Q.** Which results are given for “CODD: HIF-1α carboxy terminal ODD polypeptide (aa 549-582) with nuclear localisation sequences and c-myc tag, plasmid expressed”?
**A.** binding to VHL E3 ubiquitin ligase [1]: bound; HRE-dependent relative luciferase activity [2]: increased relative luciferase activity; 3H-glucose uptake ([3]; 24 hours induction with doxycycline, versus empty vector cells): enhanced uptake of ^3H-glucose; ubiquitination of exogenous 35S-methionine labelled HIF-1α ([3]; cell extracts versus empty vector extracts): markedly reduced; Maximal HIF-1α level relative to hypoxic or DFO treatment ([3]; doxycycline 0.2-3.2 μg/ml, peaking after 48 hours): about 70%; Glut-1 mRNA (ribonuclease protection) ([3]; doxycycline repeatedly added, 0-8 days): increased for the first 4 days and then declined; CAIX mRNA (ribonuclease protection) ([3]; doxycycline, 24 and 48 hours): markedly induced mRNA levels; tubule formation of co-cultured endothelial cells [4]: assembly of co-cultured endothelial cells into complex tubular structures
